Where a chain is given by its changes, count along the chain named.
Experiments:
Experiment in all cases: IP-One (IP1) accumulation assay, FlpIn CHO cells
Assay type in all cases: cell-based
[1] = biological target: T1, Y179^ECL2A M1 mAChR (Homo sapiens, UniProt P11229, Y179A)
T1 construct: expressed in transfected cells
T1 sequence (P11229 1-460 Y179A): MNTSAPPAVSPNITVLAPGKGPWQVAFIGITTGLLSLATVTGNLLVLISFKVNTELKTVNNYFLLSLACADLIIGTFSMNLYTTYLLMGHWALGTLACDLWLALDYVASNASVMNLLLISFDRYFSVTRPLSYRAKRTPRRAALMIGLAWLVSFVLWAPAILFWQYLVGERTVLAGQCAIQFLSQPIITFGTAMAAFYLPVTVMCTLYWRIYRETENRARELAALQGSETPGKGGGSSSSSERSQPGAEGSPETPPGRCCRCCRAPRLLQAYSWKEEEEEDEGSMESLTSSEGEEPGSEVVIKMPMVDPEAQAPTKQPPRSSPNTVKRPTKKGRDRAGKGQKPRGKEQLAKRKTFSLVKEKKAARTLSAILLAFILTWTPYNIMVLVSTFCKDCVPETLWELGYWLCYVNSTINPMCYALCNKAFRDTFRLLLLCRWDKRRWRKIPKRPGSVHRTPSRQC
Method: (§1) The IP-One assay kit (Cisbio) was used for the direct quantitative measurement of myo-Inositol 1 phosphate (IP1). Cells were seeded at 25,000 per well into 96-well transparent cell culture plates and incubated overnight at 37 °C. […] Cells were then lysed with IP1 lysis buffer (50 mM HEPES pH 7.0, 15 mM KF, 1.5% V/V Triton-X-100, 3% V/V FBS, 0.2% W/V BSA), and IP1 levels were measured by incubation of cell lysates with FRET reagents (the cryptate-labeled anti-IP1 antibody and the d2-labeled IP1 analogue) for 1 h at 37 °C. […] Signals were expressed as the FRET ratio: F = (fluorescence665 nm/fluorescence590 nm) × 10^4, and normalized to the response to maximal ACh concentration (100 µM).
(§2) (Eq. (2)) was used:(2) Y=Basal+Em-Basal/1+KA+A/τA where Em is the maximal possible system response and Basal is the response in the absence of agonist. [A] denotes the concentration of ligand, and KA represents its equilibrium dissociation constants. τ denotes the intrinsic efficacy of the ligand, which incorporates the total receptor density and the efficiency of stimulus-response coupling.
(§3) Functional interaction studies between orthosteric agonists and allosteric modulators in IP1 assays were analysed using the following operational model of allosterism and agonism (Eq. (3)):(3) E=Basal+Em-BasalAKB+αβB+τBBEC50/EC50KB+B+AKB+αβB+τBBEC50 where Em is the maximal possible system response, and Basal is the response in the absence of agonist. KB is the equilibrium dissociation constant of allosteric ligand, and EC50 is the concentration of orthosteric agonist required to achieve half maximal response. [A] and [B] denote concentrations of orthosteric and allosteric ligands, respectively. α and β denote allosteric effects on orthosteric ligand binding affinity and efficacy, respectively, and τB denotes the efficacy of allosteric ligand. This model assumes that ACh is a full agonist at the receptor in both the absence/presence of modulator and/or there is no efficacy modulation (i.e., β = 1).

[2] = biological target: T2, F77^2.56I M1 mAChR (Homo sapiens, UniProt P11229, F77I); settings: for LogτB (logarithm of functional efficacy of the modulator): corrected for receptor expression levels relative to WT; for τB (functional efficacy of the modulator, antilog in brackets): corrected for receptor expression relative to WT; for Logαβ (logarithm of functional cooperativity between ACh and modulator): pKB constrained to Table 1, β constrained to 1
T2 construct: expressed in transfected cells
T2 sequence (P11229 1-460 F77I): T1 sequence (P11229 1-460 Y179A) with F77I, A179Y
Method: as §1, §2, §3

[3] = biological target: T3, Y82^2.61A M1 mAChR (Homo sapiens, UniProt P11229, Y82A); settings: for LogτB (logarithm of functional efficacy of the modulator): corrected for receptor expression levels relative to WT; for τB (functional efficacy of the modulator, antilog in brackets): corrected for receptor expression relative to WT; for Logαβ (logarithm of functional cooperativity between ACh and modulator): pKB constrained to Table 1, β constrained to 1
T3 construct: expressed in transfected cells
T3 sequence (P11229 1-460 Y82A): T1 sequence (P11229 1-460 Y179A) with Y82A, A179Y
Method: as §1, §2, §3

[4] = biological target: T4, W400^7.35A M1 mAChR (Homo sapiens, UniProt P11229, W400A)
T4 construct: expressed in transfected cells
T4 sequence (P11229 1-460 W400A): T1 sequence (P11229 1-460 Y179A) with A179Y, W400A
Method: as §1, §2, §3

Row | Modulation of ACh-stimulated IP1 accumulation [1] | αβ (functional cooperativity with ACh, antilog in brackets) [2] | LogτB (logarithm of functional efficacy of the modulator) [2] | τB (functional efficacy of the modulator, antilog in brackets) [2] | Logαβ (logarithm of functional cooperativity between ACh and modulator) [2] | αβ (functional cooperativity with ACh, antilog in brackets) [3] | LogτB (logarithm of functional efficacy of the modulator) [3] | τB (functional efficacy of the modulator, antilog in brackets) [3] | Logαβ (logarithm of functional cooperativity between ACh and modulator) [3] | Modulation of ACh-stimulated IP1 accumulation [4] | SMILES
1 | abolished | 112 | 1.51 ± 0.07 | 32 | 2.05 ± 0.13 | 46 | 0.95 ± 0.12 | 9 | 1.66 ± 0.12 | abolished | Cc1cnc(C(=O)N[C@H]2CCOC[C@@H]2O)cc1Cc1ccc(-c2cscn2)cc1 [PF-06767832, N-((3R,4S)-3-hydroxytetrahydro-2H-pyran-4-yl)-5-methyl-4-(4-(thiazol-4-yl)benzyl)pyridine-2-carboxamide]
2 | abolished | 63 | 1.52 ± 0.06 | 33 | 1.80 ± 0.15 | 91 | 1.85 ± 0.12 | 71 | 1.96 ± 0.14 | abolished | Cn1cc(-c2ccc(COc3ccccc3-c3cc(=O)n(C4CCCCC4O)cn3)cc2)cn1 (stereo not drawn) [MIPS1780, 3-(2-hydroxycyclohexyl)-6-(2-((4-(1-methyl-1H-pyrazol-4-yl)-benzyl)oxy)phenyl)pyrimidin-4(3H)-one]

Row | SMILES | Modulation of ACh-stimulated IP1 accumulation [1] | αβ (functional cooperativity with ACh, antilog in brackets) [2] | LogτB (logarithm of functional efficacy of the modulator) [2] | τB (functional efficacy of the modulator, antilog in brackets) [2] | Logαβ (logarithm of functional cooperativity between ACh and modulator) [2] | αβ (functional cooperativity with ACh, antilog in brackets) [3] | LogτB (logarithm of functional efficacy of the modulator) [3] | τB (functional efficacy of the modulator, antilog in brackets) [3] | Logαβ (logarithm of functional cooperativity between ACh and modulator) [3] | Modulation of ACh-stimulated IP1 accumulation [4]
3 | Cn1cc(-c2ccc(Cn3cc(C(=O)N[C@H]4CCCC[C@@H]4O)c4c(F)cc(F)cc43)cn2)cn1 [VU6004256, 4,6-difluoro-N-(1S,2S)-2-hydroxycyclohexyl-1-((6-(1-methyl-1H-pyrazol-4-yl)pyridine-3-yl)methyl)-1H-indole-3-carboxamide] | abolished | 51 | 1.43 ± 0.06 | 27 | 1.71 ± 0.15 | 19 | 0.50 ± 0.10 | 3 | 1.29 ± 0.10 | abolished

Source: publication PMC6066355, “Probing the binding site of novel selective positive allosteric modulators at the M1 muscarinic acetylcholine receptor” (Biochemical Pharmacology, 2018)
